The nature of data set [1]: Fold ratio of total AUC of Atazanavir in Sprague-Dawley rat at 3 ml/kg,po measured upto 24 hrs by UPLC-MS/MS analysis. The conditions noted are these: in vivo. In kind it is ADME.
The nature of data set [2]: AUClast in Sprague-Dawley rat at 3 ml/kg,po measured upto 24 hrs by UPLC-MS/MS analysis. It counts as ADME. More on the design: time < 24 hrs, dose 3 ml/kg, route po. The settings on record: in vivo; for AUClast: 24 h; for AUC(0-t) at 24 h: Sprague-Dawley, 3 ml/kg.
The nature of data set [3]: Aqueous solubility of compound at pH 1 by UPLC analysis. In kind it is physicochemical.
Data set [4] is described as follows: Cmax in Sprague-Dawley rat at 3 ml/kg,po measured upto 24 hrs by UPLC-MS/MS analysis. It counts as ADME. More on the design: dose 3 ml/kg, time < 24 hrs, route po. The conditions noted are these: in vivo.
A short description of data set [5]: Relative AUC ratio of Atazanavir in Sprague-Dawley rat at 3 ml/kg,po measured upto 24 hrs by UPLC-MS/MS analysis. The settings on record: in vivo. In kind it is ADME.
Data set [6] can be described thus: Ratio of AUC of Atazanavir in Sprague-Dawley rat at 3 ml/kg,po measured upto 24 hrs by UPLC-MS/MS analysis. In kind it is ADME. The settings on record: in vivo.
The nature of data set [7]: Aqueous solubility of compound at pH 4 by UPLC analysis. It counts as physicochemical.
Data set [8] can be described thus: Aqueous stability of the compound in phosphate buffer at pH 6.5 assessed as compound half life measured after 24 hrs by UPLC analysis. In kind it is physicochemical. The conditions noted are these: for half-life: phosphate buffer, pH 6.5; for t1/2: buffer, pH 6.5, 24 h, 24 h.
Data set [9] can be described thus: Relative Cmax ratio of Atazanavir in Sprague-Dawley rat at 3 ml/kg,po measured upto 24 hrs by UPLC-MS/MS analysis. It counts as ADME. The settings on record: in vivo.
Data set [10] is described as follows: Aqueous stability of the compound in acetate buffer at pH 4 assessed as compound half life measured after 24 hrs by UPLC analysis. It counts as physicochemical. The settings on record: for half-life: acetate buffer, pH 4; for t1/2: buffer, pH 4, 24 h, 24 h.
Data set [11] is described as follows: Aqueous stability of the compound in HCL at pH 1 assessed as compound half life measured after 24 hrs by UPLC analysis. The conditions noted are these: for half-life: aqueous HCl, pH 1; for t1/2: buffer, pH 1, 24 h, 24 h. It counts as physicochemical.
Data set [12] in a line: Tmax in Sprague-Dawley rat at 3 ml/kg,po measured upto 24 hrs by UPLC-MS/MS analysis. The settings on record: in vivo. It counts as ADME.
The nature of data set [13]: Ratio of Cmax/Cmin of Atazanavir in Sprague-Dawley rat at 3 ml/kg,po measured after 24 hrs by UPLC-MS/MS analysis. In kind it is ADME. The conditions noted are these: in vivo.
Where [14] appears, read: aqueous medium, read-out: solubility.

Values after ≈ are worked out from the molar mass of the structure shown.

The solubility is the concentration that dissolves in the medium under given conditions. By Cmax is commonly meant the maximum level reached in the sampled fluid or tissue. The half-life is the time needed for the level to fall by half in the phase considered. As a reminder, the Tmax is the time from dosing to the highest level. As usually defined, the AUC(0-t) is exposure summed from dosing to a finite time, without extrapolation to infinity. Low values mean low exposure, high ones high exposure.

Consider `COC(=O)N[C@H](C(=O)N[C@@H](Cc1ccccc1)[C@H](CN(Cc1ccc(-c2ccccn2)cc1)NC(=O)[C@@H](NC(=O)OC)C(C)(C)C)OC(=O)OC(OC(=O)[C@H](C)N)C(C)C)C(C)(C)C` (stereo in doubt; 3p), for which the Ratio in [1] is on record as 0.9; in data set [5], 0.8; in data set [6], 0.06; in data set [9], 0.9. In data set [2], this molecule gave an AUClast of 19 nM·h. The solubility in [3] (setting [14]) was over 1.6 mg/mL; in data set [7] (setting [14]) it was over 2.4 mg/mL. The same molecule had a Cmax in [4] (24 h) of 0.034 µM. For the same molecule, the half-life in data set [8] is 3.6 h; in data set [10], 41.8 h; in [11], 158 h. The Tmax in [12] (Sprague-Dawley, read-out: Tmax) worked out at 0.4 h.

Turning to `COC(=O)N[C@H](C(=O)N[C@@H](Cc1ccccc1)[C@H](CN(Cc1ccc(-c2ccccn2)cc1)NC(=O)[C@@H](NC(=O)OC)C(C)(C)C)OC(=O)OC(OC(=O)[C@@H](N)C(C)C)C(C)(C)C)C(C)(C)C` (stereo in doubt; 4m), the Ratio worked out at 2 in [1]; 721.4 in data set [13]; 2 in data set [5]; 0.01 in data set [6]; 1.9 in [9]. In data set [2], this molecule returned an AUClast of 6 nM·h. The solubility in [3] (buffer) was over 1.2 mg/mL; in data set [7] (buffer) it was over 1 mg/mL. In [4] (24 h), this molecule had a Cmax of 0.027 µM. Also, the t1/2 in [8] was 23.7 h. Further, the Tmax in data set [12] (po, 24 h) worked out at 0.3 h.

As for `CCC(C)C(OC(=O)O[C@@H](CN(Cc1ccc(-c2ccccn2)cc1)NC(=O)[C@@H](NC(=O)OC)C(C)(C)C)[C@H](Cc1ccccc1)NC(=O)[C@@H](NC(=O)OC)C(C)(C)C)OC(=O)[C@@H](N)C(C)C` (mixture of isomers), the Ratio in [1] was 4.6; in data set [5], 2.8; in [6] it was 0.68; in data set [9] it was 3.8. The AUClast in data set [2] turned out to be 724 nM·h. In addition, the solubility is over 2.1 mg/mL in data set [3] (setting [14]) and over 1.5 mg/mL in data set [7] (setting [14]). Also, the peak level in data set [4] (24 h) (Cmax) was 0.805 µM. Moreover, the t1/2 in data set [8] was 27.3 h. The half-life in data set [10] and in data set [11] was over 500 h each time. Further, the Tmax in [12] (Sprague-Dawley, read-out: Tmax) turned out to be 0.3 h.

In the case of `CN[C@H](C(=O)OC(OC(=O)O[C@@H](CN(Cc1ccc(-c2ccccn2)cc1)NC(=O)[C@@H](NC(=O)OC)C(C)(C)C)[C@H](Cc1ccccc1)NC(=O)[C@@H](NC(=O)OC)C(C)(C)C)C(C)C)C(C)C` (stereo in doubt; 5f), the Ratio in data set [1] amounted to 7; in [13] it was 194.1; in data set [5], 4.4; in data set [6], 0.59; in data set [9] it was 2.1. In data set [2], this molecule came in with an AUClast of 996 nM·h. Moreover, the solubility in data set [3] (buffer) was over 2 mg/mL; in data set [7] (buffer), over 1.9 mg/mL. Moreover, the highest level in [4] (24 h) (Cmax) was 0.382 µM. In addition, the t1/2 was 2.87 h in data set [8] and over 500 h in data set [10]. For the same molecule, the time of peak concentration (Tmax) in data set [12] (po, 24 h) came out at 0.7 h.

With `COC(=O)N[C@H](C(=O)N[C@@H](Cc1ccccc1)[C@H](CN(Cc1ccc(-c2ccccn2)cc1)NC(=O)[C@@H](NC(=O)OC)C(C)(C)C)OC(=O)OC(OC(=O)CCN)C(C)C)C(C)(C)C` (stereo in doubt; 3aa), the values for the solubility in data set [3] (buffer) and in data set [7] (buffer) were over 3 mg/mL and over 2.2 mg/mL, respectively. Besides, the t1/2 in data set [8] came to 11.4 h; in [10], 376.3 h; in data set [11], 376.3 h.

In the case of `COC(=O)N[C@H](C(=O)N[C@@H](Cc1ccccc1)[C@H](CN(Cc1ccc(-c2ccccn2)cc1)NC(=O)[C@@H](NC(=O)OC)C(C)(C)C)OC(=O)OC(OC(=O)[C@@H](N)C(C)C)C(C)C)C(C)(C)C` (stereo in doubt; 3r), the Ratio in [1] worked out at 3.6; in [13], 761.7; in data set [5] it was 3.6; in data set [6], 0; in data set [9], 3.4. Further, the solubility was over 2.6 mg/mL in data set [3] (setting [14]) and over 2.5 mg/mL in data set [7] (setting [14]). Moreover, in data set [8], the t1/2 turned out to be 10.6 h. Further, the half-life in [10] and in [11] was over 500 h in each case.

In the case of `COC(=O)N[C@H](C(=O)N[C@@H](Cc1ccccc1)[C@H](CN(Cc1ccc(-c2ccccn2)cc1)NC(=O)[C@@H](NC(=O)OC)C(C)(C)C)OC(=O)OC(OC(=O)[C@@H](N)CC(C)C)C(C)C)C(C)(C)C` (stereo in doubt; 3t), the Ratio stood at 1.3 in [1]; 304.4 in data set [13]; 1.3 in [5]; 0 in data set [6]; 2.1 in data set [9]. Further, the solubility is over 1.4 mg/mL in data set [3] (setting [14]) and over 1.1 mg/mL in [7] (setting [14]). For the same molecule, the t1/2 in [8] is 12 h; in data set [10], 136.8 h; in [11], over 500 h.

For `CCC(C)C(OC(=O)O[C@@H](CN(Cc1ccc(-c2ccccn2)cc1)NC(=O)[C@@H](NC(=O)OC)C(C)(C)C)[C@H](Cc1ccccc1)NC(=O)[C@@H](NC(=O)OC)C(C)(C)C)OC(=O)[C@@H](N)C(C)C` (stereo in doubt; 4k), the Ratio is 7.5 in [1]; 1631.7 in data set [13]; 3.2 in data set [5]; 1.34 in data set [6]; 3.7 in [9]. In data set [2], this molecule displayed an AUClast of 1658 nM·h. The peak level in data set [4] (24 h) (Cmax) was 1.84 µM. Moreover, the solubility in [7] (buffer) is over 2.6 mg/mL. The t1/2 worked out at 13.4 h in data set [8] and 334.4 h in [10].

As for `COC(=O)N[C@H](C(=O)N[C@@H](Cc1ccccc1)[C@H](CN(Cc1ccc(-c2ccccn2)cc1)NC(=O)[C@@H](NC(=O)OC)C(C)(C)C)OC(=O)OC(OC(=O)[C@@H](N)C(C)C)C1CCCCC1)C(C)(C)C` (stereo in doubt; 4o), the Ratio is listed as 2.1 in data set [1], 1.1 in data set [5], 0.98 in [6] and 1.4 in data set [9]. Moreover, the AUClast in [2] is 406 nM·h. The results for the solubility in data set [3] (buffer) and in data set [7] (buffer) were over 2 mg/mL and over 1.1 mg/mL, respectively. Moreover, the Cmax in data set [4] (24 h) was 0.395 µM. For the same molecule, the t1/2 in data set [8] is 12.7 h; in data set [10], over 500 h. Moreover, the time of peak concentration (Tmax) in data set [12] (po, 24 h) was found to be 0.3 h.

Take `COC(=O)N[C@H](C(=O)N[C@@H](Cc1ccccc1)[C@H](CN(Cc1ccc(-c2ccccn2)cc1)NC(=O)[C@@H](NC(=O)OC)C(C)(C)C)OC(=O)OC(OC(=O)C[C@H](N)Cc1cc(F)c(F)cc1F)C(C)C)C(C)(C)C` (stereo in doubt; 3ac): the Ratio was 27 in [1]; 36.4 in data set [13]; 6.1 in data set [5]; 3.4 in data set [6]; 1.2 in [9]. In addition, the AUC(0-t) at 24 h in data set [2] was found to be 8010 nM·h. Besides, the solubility in data set [3] (buffer) was over 2.4 mg/mL; in [7] (buffer), 0.96 mg/mL (≈ 926 µM). The highest level in [4] (Sprague-Dawley, 3 ml/kg) (Cmax) was 0.989 µM. Besides, the values for the t1/2 in data set [8] and in data set [10] were 7.4 h and 334.3 h, respectively. Moreover, in [12] (Sprague-Dawley, read-out: Tmax), the Tmax came out at 3 h.

Turning to `COC(=O)N[C@H](C(=O)N[C@@H](Cc1ccccc1)[C@H](CN(Cc1ccc(-c2ccccn2)cc1)NC(=O)[C@@H](NC(=O)OC)C(C)(C)C)OC(=O)OC(OC(=O)[C@@H](NC(=O)[C@H](N)C(C)C)C(C)C)C(C)C)C(C)(C)C` (stereo in doubt; 6g), the solubility in [3] (setting [14]) is over 2.2 mg/mL; in data set [7] (setting [14]), over 1.2 mg/mL. The half-life in data set [8] was 6.1 h; in data set [10], 232 h; in data set [11], over 500 h.

`COC(=O)N[C@H](C(=O)N[C@@H](Cc1ccccc1)[C@H](CN(Cc1ccc(-c2ccccn2)cc1)NC(=O)[C@@H](NC(=O)OC)C(C)(C)C)OC(=O)OC(OC(=O)C[C@H](N)Cc1cc(F)c(F)cc1F)C(C)C)C(C)(C)C` (stereo in doubt; 3ab): the solubility in data set [3] (buffer) is over 0.96 mg/mL; in [7] (setting [14]), over 0.91 mg/mL. The half-life in data set [8] was 8.9 h; in [10] it was 376 h; in data set [11] it was over 500 h.

As to `COC(=O)N[C@H](C(=O)N[C@@H](Cc1ccccc1)[C@H](CN(Cc1ccc(-c2ccccn2)cc1)NC(=O)[C@@H](NC(=O)OC)C(C)(C)C)OC(=O)OC(OC(=O)[C@@H](N)CC(C)C)C(C)C)C(C)(C)C` (stereo in doubt; 3u), the Ratio worked out at 2.4 in data set [1], 2.1 in data set [5], 0.13 in data set [6] and 2.9 in data set [9]. The same molecule yielded an AUC(0-t) at 24 h in data set [2] of 105 nM·h. Moreover, the solubility in [3] (buffer) was over 1.48 mg/mL; in data set [7] (buffer) it was over 1.6 mg/mL. Also, the Cmax in data set [4] (Sprague-Dawley, 3 ml/kg) was found to be 0.182 µM. Moreover, the t1/2 came out at 5.9 h in [8], 59 h in [10] and 136.8 h in data set [11]. Moreover, in data set [12] (Sprague-Dawley, read-out: Tmax), the time of peak concentration (Tmax) worked out at 0.3 h.

Source of the values: ChEMBL document CHEMBL5137093, “Improving Drug Delivery While Tailoring Prodrug Activation to Modulate Cmax and Cmin by Optimization of (Carbonyl)oxyalkyl Linker-Based Prodrugs of Atazanavir” (J Med Chem, 2022).
